Measurements as given in ChEMBL document CHEMBL1201862, “PubChem BioAssay data set” (2004).
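Compound exposure: 48 hours, 5 concentrations, 96-well plates. GI50 is the concentration that inhibits growth by half.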 Active and inactive are the calls of the source. Rule as the data show it: active = GI50 up to about 1.1 µM and inactive = higher.

Experiments:
Test in all cases: growth of human tumour cells (NCI), 48 h
[1] = tested on: MDA-MB-231
[2] = tested on: COLO 205
[3] = tested on: UO-31
[4] = tested on: MCF7
[5] = tested on: NCI/ADR-RES
[6] = tested on: A549
[7] = tested on: SF-268
[8] = tested on: SF-295
[9] = tested on: SW-620
[10] = tested on: NCI-H522
[11] = tested on: Hs-578T
[12] = tested on: CAKI-1
[13] = tested on: OVCAR-5
[14] = tested on: OVCAR-8
[15] = tested on: ACHN
[16] = tested on: HCT-15
[17] = tested on: CCRF-CEM
[18] = tested on: DU-145
[19] = tested on: EKVX
[20] = tested on: KM12
[21] = tested on: HCC 2998
[22] = tested on: 786-0
[23] = tested on: HCT-116
[24] = tested on: NCI-H23
[25] = tested on: SK-MEL-28
[26] = tested on: SK-MEL-5
[27] = tested on: U-251
[28] = tested on: BT-549
[29] = tested on: NCI-H226
[30] = tested on: K562
[31] = tested on: RXF 393
[32] = tested on: PC-3
[33] = tested on: MDA-MB-435
[34] = tested on: SR
[35] = tested on: IGROV-1
[36] = tested on: HL-60
[37] = tested on: HOP-62
[38] = tested on: MDA-N
[39] = tested on: UACC-62
[40] = tested on: M14
[41] = tested on: MOLT-4
[42] = tested on: TK-10
[43] = tested on: HT-29
[44] = tested on: LOX IMVI
[45] = tested on: Malme-3M
[46] = tested on: HOP-92
[47] = tested on: SF-539
[48] = tested on: SN12C
[49] = tested on: OVCAR-4
[50] = tested on: A498
[51] = tested on: SK-MEL-2
[52] = tested on: SK-OV-3
[53] = tested on: SNB-19
[54] = tested on: UACC-257
[55] = tested on: OVCAR-3
[56] = tested on: SNB-75
[57] = tested on: NCI-H460
[58] = tested on: T47D
[59] = tested on: RPMI-8226

## CCCCNc1nc(SC)nc2[nH]cnc12
[1]
  GI50: > 81.1 µM (inactive)
[2]
  GI50: > 100 µM (inactive)
[3]
  GI50: > 100 µM (inactive)
[4]
  GI50: > 100 µM (inactive)
[5]
  GI50: > 100 µM (inactive)
[6]
  GI50: > 100 µM (inactive)
[7]
  GI50: 98.4 µM (inactive)
[8]
  GI50: > 100 µM (inactive)
[9]
  GI50: > 100 µM (inactive)
[10]
  GI50: > 100 µM (inactive)
[11]
  GI50: 2.36 µM (inactive)
[12]
  GI50: > 100 µM (inactive)
[13]
  GI50: > 100 µM (inactive)
[14]
  GI50: > 64.4 µM (inactive)
[15]
  GI50: > 100 µM (inactive)
[16]
  GI50: > 100 µM
[17]
  GI50: > 100 µM (inactive)
[18]
  GI50: > 100 µM (inactive)
[19]
  GI50: > 87.7 µM (inactive)
[20]
  GI50: > 100 µM (inactive)
[21]
  GI50: > 100 µM (inactive)
[22]
  GI50: > 100 µM (inactive)
[23]
  GI50: > 100 µM (inactive)
[24]
  GI50: > 100 µM (inactive)
[25]
  GI50: > 100 µM (inactive)
[26]
  GI50: > 100 µM (inactive)
[27]
  GI50: > 100 µM (inactive)
[28]
  GI50: > 100 µM (inactive)
[29]
  GI50: > 100 µM (inactive)
[30]
  GI50: > 100 µM (inactive)
[31]
  GI50: > 88.5 µM (inactive)
[32]
  GI50: > 100 µM (inactive)
[33]
  GI50: > 100 µM (inactive)
[34]
  GI50: > 100 µM (inactive)
[35]
  GI50: > 100 µM (inactive)
[36]
  GI50: > 100 µM (inactive)
[37]
  GI50: > 100 µM (inactive)
[38]
  GI50: > 100 µM (inactive)
[39]
  GI50: > 100 µM (inactive)
[40]
  GI50: > 100 µM (inactive)
[41]
  GI50: > 100 µM (inactive)
[42]
  GI50: > 100 µM (inactive)
[43]
  GI50: > 100 µM (inactive)
[44]
  GI50: > 100 µM (inactive)
[45]
  GI50: > 100 µM (inactive)
[46]
  GI50: > 59 µM (inactive)
[47]
  GI50: > 100 µM (inactive)
[48]
  GI50: > 100 µM (inactive)
[49]
  GI50: > 100 µM (inactive)
[50]
  GI50: 5.96 µM (inactive)
[51]
  GI50: > 100 µM (inactive)
[52]
  GI50: 5.82 µM (inactive)
[53]
  GI50: > 74 µM (inactive)
[54]
  GI50: > 100 µM (inactive)
[55]
  GI50: > 100 µM (inactive)
[56]
  GI50: 76.7 µM (inactive)
[57]
  GI50: > 100 µM (inactive)
[58]
  GI50: > 100 µM (inactive)
[59]
  GI50: > 100 µM (inactive)

## CCc1ccc(/C=C/C(=O)C2CN(CC)CCC2(O)/C=C/c2ccc(CC)cc2)cc1 (configuration not stated)
[1]
  GI50: 2.23 µM (inactive)
[2]
  GI50: 2.45 µM (inactive)
[3]
  GI50: 3.2 µM (inactive)
[4]
  GI50: 2.42 µM (inactive)
[5]
  GI50: 3.47 µM (inactive)
[6]
  GI50: 7.08 µM (inactive)
[7]
  GI50: 4.57 µM (inactive)
[8]
  GI50: 2.94 µM (inactive)
[9]
  GI50: 1.88 µM (inactive)
[10]
  GI50: 2.59 µM (inactive)
[11]
  GI50: 2.83 µM (inactive)
[12]
  GI50: 6.59 µM (inactive)
[13]
  GI50: 3.16 µM (inactive)
[14]
  GI50: 3.3 µM (inactive)
[15]
  GI50: 1.95 µM (inactive)
[16]
  GI50: 3.24 µM
[17]
  GI50: 1.87 µM (inactive)
[18]
  GI50: 9.55 µM (inactive)
[19]
  GI50: 4.75 µM (inactive)
[20]
  GI50: 1.87 µM (inactive)
[21]
  GI50: 2.22 µM (inactive)
[22]
  GI50: 1.75 µM (inactive)
[23]
  GI50: 1.79 µM (inactive)
[24]
  GI50: 4.61 µM (inactive)
[25]
  GI50: 1.55 µM (inactive)
[26]
  GI50: 4.36 µM (inactive)
[27]
  GI50: 1.66 µM (inactive)
[28]
  GI50: 4.68 µM (inactive)
[29]
  GI50: 4.41 µM (inactive)
[30]
  GI50: 2.52 µM (inactive)
[31]
  GI50: 3.18 µM (inactive)
[32]
  GI50: 3.55 µM (inactive)
[33]
  GI50: 1.88 µM (inactive)
[34]
  GI50: 1.71 µM (inactive)
[35]
  GI50: 2.06 µM (inactive)
[36]
  GI50: 2.77 µM (inactive)
[37]
  GI50: 1.91 µM (inactive)
[38]
  GI50: 3.23 µM (inactive)
[39]
  GI50: 4.92 µM (inactive)
[40]
  GI50: 2.61 µM (inactive)
[41]
  GI50: 2.2 µM (inactive)
[42]
  GI50: 2.34 µM (inactive)
[43]
  GI50: 1.83 µM (inactive)
[44]
  GI50: 1.51 µM (inactive)
[45]
  GI50: 7.31 µM (inactive)
[46]
  GI50: 1.71 µM (inactive)
[47]
  GI50: 2.31 µM (inactive)
[48]
  GI50: 4.09 µM (inactive)
[49]
  GI50: 4.2 µM (inactive)
[50]
  GI50: 10.7 µM (inactive)
[51]
  GI50: 7.18 µM (inactive)
[52]
  GI50: 12.3 µM (inactive)
[53]
  GI50: 7.62 µM (inactive)
[54]
  GI50: 6.92 µM (inactive)
[55]
  GI50: 1.71 µM (inactive)
[56]
  GI50: 9.33 µM (inactive)
[57]
  GI50: 2.22 µM (inactive)
[58]
  GI50: 4.15 µM (inactive)
[59]
  GI50: 1.36 µM (inactive)

## O=C(/C=C/c1cccc2ccccc12)c1ccccc1
[1]
  GI50: 8.93 µM (inactive)
[2]
  GI50: 20.7 µM (inactive)
[3]
  GI50: 11.6 µM (inactive)
[4]
  GI50: 1.29 µM (inactive)
[5]
  GI50: 14 µM (inactive)
[6]
  GI50: 15.2 µM (inactive)
[7]
  GI50: 16.5 µM (inactive)
[8]
  GI50: 16.5 µM (inactive)
[9]
  GI50: 4 µM (inactive)
[10]
  GI50: 10.1 µM (inactive)
[11]
  GI50: 26.3 µM (inactive)
[12]
  GI50: 12.2 µM (inactive)
[13]
  GI50: 13.8 µM (inactive)
[14]
  GI50: 8.45 µM (inactive)
[15]
  GI50: 13.9 µM (inactive)
[16]
  GI50: 6.85 µM
[17]
  GI50: 3.28 µM (inactive)
[18]
  GI50: 14.8 µM (inactive)
[19]
  GI50: 13.4 µM (inactive)
[20]
  GI50: 4.71 µM (inactive)
[21]
  GI50: 15.7 µM (inactive)
[22]
  GI50: 8.83 µM (inactive)
[23]
  GI50: 10.3 µM (inactive)
[24]
  GI50: 13.7 µM (inactive)
[25]
  GI50: 17.7 µM (inactive)
[26]
  GI50: 12.5 µM (inactive)
[27]
  GI50: 8.63 µM (inactive)
[28]
  GI50: 13.2 µM (inactive)
[29]
  GI50: 12.7 µM (inactive)
[30]
  GI50: 2.74 µM (inactive)
[31]
  GI50: 10.9 µM (inactive)
[32]
  GI50: 7.05 µM (inactive)
[33]
  GI50: 8.81 µM (inactive)
[34]
  GI50: 2.9 µM (inactive)
[35]
  GI50: 7.45 µM (inactive)
[36]
  GI50: 2.88 µM (inactive)
[37]
  GI50: 19.8 µM (inactive)
[38]
  GI50: 5.71 µM (inactive)
[39]
  GI50: 11.7 µM (inactive)
[40]
  GI50: 14.6 µM (inactive)
[41]
  GI50: 3.94 µM (inactive)
[42]
  GI50: 6.35 µM (inactive)
[43]
  GI50: 4.57 µM (inactive)
[44]
  GI50: 1.99 µM (inactive)
[45]
  GI50: 12.9 µM (inactive)
[46]
  GI50: 18.3 µM (inactive)
[47]
  GI50: 3.57 µM (inactive)
[48]
  GI50: 7.89 µM (inactive)
[49]
  GI50: 12.9 µM (inactive)
[50]
  GI50: 17.4 µM (inactive)
[51]
  GI50: 14 µM (inactive)
[52]
  GI50: 16.3 µM (inactive)
[53]
  GI50: 14.5 µM (inactive)
[54]
  GI50: 15 µM (inactive)
[55]
  GI50: 9.16 µM (inactive)
[56]
  GI50: 15.9 µM (inactive)
[57]
  GI50: 16.1 µM (inactive)
[58]
  GI50: 11.7 µM (inactive)
[59]
  GI50: 2.31 µM (inactive)
